The data set is classed as physicochemical. On the procedure:
The solubility of B4MP-TIPS-An, which was synthesized in Example 1, was measured in various solvents at room temperature. This small molecule semiconductor had moderate solubility in n-butylbenzene (about 1.0 weight percent) and good solubility in dichlorobenzene (greater than 6.0 weight percent) and xylene (about 3.5 weight percent). The weight percent is based on the total solution weight.

Structures are written as SMILES.

For `COc1ccc(-c2ccc3c(C#C[Si](C(C)C)(C(C)C)C(C)C)c4cc(-c5ccc(OC)cc5)ccc4c(C#C[Si](C(C)C)(C(C)C)C(C)C)c3c2)cc1` [Example B4MP-TIPS-An, 2,6-Bis(4-methoxy-phenyl)-9,10-bis-[(triisopropylsilyl)ethynyl]anthracene], the solubility in dichlorobenzene result is reported as “greater than 6.0 weight percent”, the solubility in n-butylbenzene result is given as “about 1.0 weight percent” and the solubility in xylene entry was “about 3.5 weight percent”.

The values above are taken from US20110079775A1, “Solution Processable Organic Semiconductors” (priority 2008, published 2011).
